Laboratory results taken from patent US20250205259A1, “CLASS OF 7-((FIVE-MEMBERED HETEROCYCLIC)METHYL)-8-CARBOXYLIC ACID-BENZO CYCLIC BORATE DERIVATIVES AND USES THEREOF” (priority 2022, published 2025).
Read-outs that look alike come from different tables or passages of the source.

Legend:
Type in all cases: biochemical
NDM-1 = NDM-1 (Klebsiella pneumoniae, UniProt C7C422); experiment: Inhibitory activity on MBL, fluorescent substrate FC-5
NDM-5 = NDM-5 (Klebsiella pneumoniae, UniProt C7C422, M154L/V88L); experiment: as above
IMP-1 = IMP-1 (Serratia marcescens, UniProt P52699); experiment: as above
VIM-1 = VIM-1 (Pseudomonas aeruginosa, UniProt A0A0F7KYQ8); experiment: as above
VIM-2 = VIM-2 (Escherichia coli, UniProt Q5U7L7); experiment: as above
KPC-2 = KPC-2 (Klebsiella pneumoniae, UniProt Q9F663); experiment: Inhibitory activity on SBL, fluorescent substrate FC-5; conditions: for inhibitory activity on KPC-2 compared to avibactam: comparison in words
TEM-1 = TEM-1 (Escherichia coli, UniProt P62593); experiment: as above; conditions: for IC50: read-out: Inhibitory activity on SBL TEM-1 (IC50 class); for inhibitory activity on TEM-1 compared to avibactam: comparison in words
SHV-12 = molecular target: T1, SHV-12 (UniProt P0AD64, L31Q/G234S/E235K, species not given); experiment: as above; conditions: for IC50: read-out: Inhibitory activity on SBL SHV-12 (IC50 class)
T1 sequence (P0AD64 1-286 L31Q/G234S/E235K): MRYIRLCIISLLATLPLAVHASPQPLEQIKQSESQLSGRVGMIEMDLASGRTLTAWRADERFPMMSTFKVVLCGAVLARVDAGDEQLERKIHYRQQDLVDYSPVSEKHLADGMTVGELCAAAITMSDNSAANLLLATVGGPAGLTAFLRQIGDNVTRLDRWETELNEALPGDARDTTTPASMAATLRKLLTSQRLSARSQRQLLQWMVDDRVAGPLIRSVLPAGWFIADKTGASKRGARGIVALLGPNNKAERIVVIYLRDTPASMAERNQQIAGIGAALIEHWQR

CTX-M-14 = CTX-M-14 (Escherichia coli, UniProt Q9L5C7); experiment: as above; conditions: for inhibitory activity on CTX-M-14 compared to avibactam: comparison in words
OXA-48 = OXA-48 (Klebsiella pneumoniae, UniProt Q6XEC0); experiment: as above; conditions: for inhibitory activity on OXA-48 compared to avibactam: comparison in words
[1] = read-out: Inhibitory activity on MBL NDM-1 (IC50 class)
[2] = read-out: inhibitory activity at a nanomolar-level on NDM-1
[3] = read-out: Inhibitory activity on MBL NDM-5 (IC50 class)
[4] = read-out: inhibitory activity at a nanomolar-level on NDM-5
[5] = read-out: Inhibitory activity on MBL IMP-1 (IC50 class)
[6] = VIM-1 and/or VIM-2, read-out: inhibitory activity at a nanomolar-level on VIM-1 and/or VIM-2
[7] = read-out: Inhibitory activity on MBL VIM-1 (IC50 class)
[8] = read-out: Inhibitory activity on MBL VIM-2 (IC50 class)
[9] = read-out: Inhibitory activity on SBL KPC-2 (IC50 class)
[10] = read-out: Inhibitory activity on SBL CTX-M-14 (IC50 class)
[11] = read-out: Inhibitory activity on SBL OXA-48 (IC50 class)
[12] = IMP-1 and/or IMP-4, read-out: inhibitory activity at a nanomolar-level on IMP-1 and/or IMP-4

IMP-1, sequence (P52699 19-246 limits assumed): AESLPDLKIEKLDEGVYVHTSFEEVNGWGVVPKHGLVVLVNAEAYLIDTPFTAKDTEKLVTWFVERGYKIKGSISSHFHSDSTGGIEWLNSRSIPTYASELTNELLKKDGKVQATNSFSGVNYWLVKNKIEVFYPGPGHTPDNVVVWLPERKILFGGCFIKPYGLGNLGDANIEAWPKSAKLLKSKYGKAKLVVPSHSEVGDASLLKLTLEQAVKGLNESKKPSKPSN
NDM-1, sequence (C7C422 29-270 limits assumed): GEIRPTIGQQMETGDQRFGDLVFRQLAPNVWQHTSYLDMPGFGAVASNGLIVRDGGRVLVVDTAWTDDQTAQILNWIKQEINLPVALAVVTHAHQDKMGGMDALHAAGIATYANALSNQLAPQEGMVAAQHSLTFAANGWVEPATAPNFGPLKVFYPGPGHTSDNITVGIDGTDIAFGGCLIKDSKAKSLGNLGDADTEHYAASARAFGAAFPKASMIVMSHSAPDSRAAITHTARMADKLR
OXA-48, sequence (Q6XEC0 23-265 limits assumed): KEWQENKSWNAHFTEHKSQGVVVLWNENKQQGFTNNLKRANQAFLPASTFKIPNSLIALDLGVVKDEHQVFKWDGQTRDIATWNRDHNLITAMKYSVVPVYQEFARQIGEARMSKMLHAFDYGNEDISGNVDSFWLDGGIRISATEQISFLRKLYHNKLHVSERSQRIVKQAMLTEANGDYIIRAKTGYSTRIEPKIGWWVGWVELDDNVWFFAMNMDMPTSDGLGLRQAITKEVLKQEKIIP
KPC-2, sequence (Q9F663 25-293 limits assumed): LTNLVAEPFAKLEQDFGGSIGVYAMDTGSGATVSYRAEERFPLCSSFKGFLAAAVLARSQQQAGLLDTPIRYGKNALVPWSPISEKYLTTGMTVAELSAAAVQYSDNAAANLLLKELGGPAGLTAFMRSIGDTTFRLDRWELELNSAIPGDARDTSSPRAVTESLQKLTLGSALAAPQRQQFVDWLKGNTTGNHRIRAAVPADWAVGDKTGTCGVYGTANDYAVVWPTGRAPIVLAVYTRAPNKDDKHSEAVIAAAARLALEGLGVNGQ
TEM-1, sequence (P62593 24-286 limits assumed): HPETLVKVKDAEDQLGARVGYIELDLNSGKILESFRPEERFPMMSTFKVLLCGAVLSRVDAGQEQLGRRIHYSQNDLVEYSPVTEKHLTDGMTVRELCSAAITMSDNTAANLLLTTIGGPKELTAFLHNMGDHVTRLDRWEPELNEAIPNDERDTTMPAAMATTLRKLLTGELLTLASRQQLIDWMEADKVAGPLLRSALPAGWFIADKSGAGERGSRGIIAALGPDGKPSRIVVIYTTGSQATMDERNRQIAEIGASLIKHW
CTX-M-14, sequence (Q9L5C7 entry or part of it): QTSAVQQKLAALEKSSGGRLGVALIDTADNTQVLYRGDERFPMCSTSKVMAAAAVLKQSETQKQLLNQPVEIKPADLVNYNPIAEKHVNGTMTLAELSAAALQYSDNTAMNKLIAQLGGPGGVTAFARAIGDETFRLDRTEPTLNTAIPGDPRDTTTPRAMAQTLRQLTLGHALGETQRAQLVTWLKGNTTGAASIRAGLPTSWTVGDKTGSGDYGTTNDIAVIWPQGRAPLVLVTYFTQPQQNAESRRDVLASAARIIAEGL
NDM-5, sequence (C7C422 29-270 V88L/M154L): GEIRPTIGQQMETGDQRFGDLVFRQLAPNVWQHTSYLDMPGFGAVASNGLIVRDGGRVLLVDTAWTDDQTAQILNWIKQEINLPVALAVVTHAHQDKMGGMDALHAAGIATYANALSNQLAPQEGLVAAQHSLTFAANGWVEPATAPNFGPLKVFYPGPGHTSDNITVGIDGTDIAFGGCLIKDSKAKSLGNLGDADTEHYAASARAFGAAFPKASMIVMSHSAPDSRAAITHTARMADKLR

SMILES | IC50 (NDM-1; [1]) [µM] | IC50 (NDM-1; [2]) [µM] | IC50 (NDM-5; [3]) [µM] | IC50 (NDM-5; [4]) [µM] | IC50 (IMP-1; [5]) [µM] | IC50 (VIM-1; [6]) [µM] | IC50 (VIM-1; [7]) [µM] | IC50 (VIM-2; [8]) [µM] | IC50 (KPC-2; [9]) [µM] | IC50 (TEM-1) [µM] | IC50 (SHV-12) [µM] | IC50 (CTX-M-14; [10]) [µM] | IC50 (OXA-48; [11]) [µM] | other results
O=C(O)c1c(Cn2ccnc2)ccc2c1OB(O)CC2 [Compound 23] | 0.01 to 1 | < 1 | 0.01 to 1 | < 1 | 1 to 100 | < 1 | 1 to 100 | 0.01 to 1 | < 0.01 | 0.01 to 1 | 0.01 to 1 | 0.01 to 1 | < 0.01 | 
O=C(O)c1c(CN2C[C@H](O)CC2=O)ccc2c1OB(O)CC2 [Compound 44] | 0.01 to 1 | < 1 | 0.01 to 1 | < 1 | 1 to 100 | < 1 | 0.01 to 1 | 0.01 to 1 | 0.01 to 1 | 0.01 to 1 | 0.01 to 1 | 0.01 to 1 | 0.01 to 1 | 
N#Cc1cnn(Cc2ccc3c(c2C(=O)O)OB(O)CC3)c1 [Compound 17] | 0.01 to 1 | < 1 | 0.01 to 1 | < 1 | 1 to 100 | < 1 | 1 to 100 | 0.01 to 1 | < 0.01 | < 0.01 | 0.01 to 1 | 0.01 to 1 | < 0.01 | inhibitory activity on KPC-2 compared to avibactam (KPC-2): better or comparable; inhibitory activity on TEM-1 compared to avibactam (TEM-1): better or comparable; inhibitory activity on CTX-M-14 compared to avibactam (CTX-M-14): better or comparable; inhibitory activity on OXA-48 compared to avibactam (OXA-48): better or comparable
NC(=O)[C@@H]1CC[C@@H]2CN1C(=O)N2OS(=O)(=O)O [Avibactam, reference compound] | > 100 |  | > 100 |  | > 100 |  | > 100 | > 100 |  |  | < 0.01 | < 0.01 |  | 
N=C(N)NCCCc1cn(Cc2ccc3c(c2C(=O)O)OB(O)CC3)nn1 [Compound 48] | 1 to 100 |  | 0.01 to 1 |  | 1 to 100 |  | 1 to 100 | 0.01 to 1 | < 0.01 | 0.01 to 1 | 0.01 to 1 | 0.01 to 1 | 0.01 to 1 | 
NS(=O)(=O)Nc1cnn(Cc2ccc3c(c2C(=O)O)OB(O)CC3)c1 [Compound 34] | 0.01 to 1 | < 1 |  |  | 1 to 100 |  | 1 to 100 | 0.01 to 1 | < 0.01 | < 0.01 | 0.01 to 1 | < 0.01 | < 0.01 | IC50 (NDM-5; Inhibitory activity on MBL NDM-5 (IC50 class)): 0.01 to 1 µM; IC50 (NDM-5; inhibitory activity at a nanomolar-level on NDM-5): < 1 µM
N#Cc1ccn(Cc2ccc3c(c2C(=O)O)OB(O)CC3)c1 [Compound 71] | 0.01 to 1 | < 1 | 0.01 to 1 | < 1 | 0.01 to 1 | < 1 | 0.01 to 1 | 0.01 to 1 | < 0.01 | < 0.01 | < 0.01 | 0.01 to 1 | 0.01 to 1 | inhibitory activity on SHV-12 compared to control drugs (SHV-12; comparison in words): comparable to avibactam and tazobactam and superior to taniborbactam
O=C(O)c1c(Cn2ccnn2)ccc2c1OB(O)CC2 [Compound 2] | 0.01 to 1 | < 1 | 0.01 to 1 | < 1 | 1 to 100 | < 1 | 1 to 100 | 0.01 to 1 | < 0.01 | 0.01 to 1 | 0.01 to 1 | 0.01 to 1 | 0.01 to 1 | 
N=C(N)NCCc1cnn(Cc2ccc3c(c2C(=O)O)OB(O)CC3)c1 [Compound 50] | 1 to 100 |  | 0.01 to 1 |  | 1 to 100 |  | 1 to 100 | 1 to 100 | < 0.01 | 0.01 to 1 | 0.01 to 1 | 0.01 to 1 | 0.01 to 1 | 
N=C(N)Nc1cnn(Cc2ccc3c(c2C(=O)O)OB(O)CC3)c1 [Compound 38] | 0.01 to 1 | < 1 | 0.01 to 1 | < 1 | 1 to 100 |  | 1 to 100 | 0.01 to 1 | 0.01 to 1 | 0.01 to 1 |  | 0.01 to 1 | < 0.01 | 
CC(C)(N)C#Cc1cnn(Cc2ccc3c(c2C(=O)O)OB(O)CC3)c1 [Compound 46] | 1 to 100 |  | 0.01 to 1 |  | 1 to 100 |  | 1 to 100 | 0.01 to 1 | < 0.01 | 0.01 to 1 |  | < 0.01 | 0.01 to 1 | 
NS(=O)(=O)c1ccc(-c2cn(Cc3ccc4c(c3C(=O)O)OB(O)CC4)nn2)cc1 [Compound 62] | 0.01 to 1 | < 1 | 0.01 to 1 | < 1 | 0.01 to 1 | < 1 | 0.01 to 1 | 0.01 to 1 | < 0.01 | 0.01 to 1 |  | < 0.01 | < 0.01 | IC50 (IMP-1; [12]): < 1 µM; IC50 (VIM-2; read-out: inhibitory activity on VIM-2): < 0.01 µM; inhibitory activity on KPC-2 compared to avibactam (KPC-2): better or comparable; inhibitory activity on TEM-1 compared to avibactam (TEM-1): better or comparable; inhibitory activity on CTX-M-14 compared to avibactam (CTX-M-14): better or comparable; inhibitory activity on OXA-48 compared to avibactam (OXA-48): better or comparable
NCc1cn(Cc2ccc3c(c2C(=O)O)OB(O)CC3)nn1 [Compound 7] | 1 to 100 |  | 1 to 100 |  | 1 to 100 |  | 1 to 100 | 1 to 100 | 0.01 to 1 | 0.01 to 1 |  | 0.01 to 1 | 0.01 to 1 | 
NC1CN(Cc2cnn(Cc3ccc4c(c3C(=O)O)OB(O)CC4)c2)C1 [Compound 75] | 1 to 100 |  | > 100 |  | > 100 |  | 1 to 100 | > 100 | 0.01 to 1 | 1 to 100 |  | 1 to 100 | 1 to 100 | 
CO[C@H]1Cc2ccc(Cn3ccnn3)c(C(=O)O)c2OB1O [Compound 30] | 0.01 to 1 | < 1 | 0.01 to 1 | < 1 | 0.01 to 1 | < 1 | 0.01 to 1 | 0.01 to 1 | < 0.01 | 0.01 to 1 |  | 0.01 to 1 | 0.01 to 1 | IC50 (IMP-1; [12]): < 1 µM
O=C(O)c1c(Cn2cc3c(n2)CNC3)ccc2c1OB(O)CC2 [Compound 56] | 0.01 to 1 | < 1 | 0.01 to 1 | < 1 | 1 to 100 | < 1 | 0.01 to 1 | 0.01 to 1 | < 0.01 | < 0.01 |  | 0.01 to 1 | < 0.01 | 
NCc1cnn(Cc2ccc3c(c2C(=O)O)OB(O)[C@@H](Sc2nncs2)C3)c1 [Compound 68] | 0.01 to 1 |  | 1 to 100 |  | 1 to 100 |  | 1 to 100 | 0.01 to 1 | 1 to 100 | 1 to 100 |  | 1 to 100 | 1 to 100 | 
O=C(O)c1c(Cn2nccn2)ccc2c1OB(O)C1CC21 (stereo not drawn) [Compound 27] |  |  | 1 to 100 |  |  |  |  |  |  | 0.01 to 1 |  |  |  | IC50 (NDM-1): 1 to 100 µM; IC50 (IMP-1): 1 to 100 µM; IC50 (VIM-1; Inhibitory activity on MBL VIM-1 (IC50 class)): 1 to 100 µM; IC50 (VIM-1; inhibitory activity at a nanomolar-level on VIM-1 and/or VIM-2, text summary, VIM-1 and/or VIM-2): < 1 µM; IC50 (VIM-2): 0.01 to 1 µM; IC50 (KPC-2): < 0.01 µM; IC50 (CTX-M-14): 0.01 to 1 µM; IC50 (OXA-48; Inhibitory activity on SBL OXA-48 (IC50 class)): < 0.01 µM
N=C(N)NCc1cnn(Cc2ccc3c(c2C(=O)O)OB(O)CC3)c1 [Compound 37] | 0.01 to 1 | < 1 | 0.01 to 1 | < 1 | 1 to 100 |  | 1 to 100 | 0.01 to 1 | < 0.01 | < 0.01 |  | < 0.01 | < 0.01 | 
NCCNc1cnn(Cc2ccc3c(c2C(=O)O)OB(O)CC3)c1 [Compound 33] | 0.01 to 1 | < 1 | 0.01 to 1 | < 1 | 1 to 100 |  | 1 to 100 | 0.01 to 1 | < 0.01 | 0.01 to 1 |  | 0.01 to 1 | < 0.01 | 
